Assay results: US20210045385A1, “PYRIDAZINONE-SUBSTITUTED KETOXIMES AS HERBICIDES” (FMC Corporation, priority 2018, published 2021)

Columns and labels:
Format in all cases: in vivo
[1] = tested on: Italian ryegrass (Lolium multiflorum); assay: Test A preemergence, visual plant response rating; conditions: approx. 10 days
Outline: (§1)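 Formulated in a non-phytotoxic solvent mixture including surfactant, each test chemical was sprayed onto the soil surface after sowing, or onto seedlings 2 to 10 cm high. Roughly 10 days later, plants were compared with untreated controls and rated for injury from 0 (no effect) to 100 (complete control).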

[2] = tested on: barnyardgrass (Echinochloa crus-galli); assay: Test A preemergence, visual plant response rating; conditions: approx. 10 days
Outline: as §1

[3] = tested on: foxtail, green (green foxtail, Setaria viridis); assay: Test A preemergence, visual plant response rating; conditions: approx. 10 days
Outline: as §1

kochia (Kochia scoparia) [4] = assay: Test A preemergence, visual plant response rating; conditions: approx. 10 days
Outline: as §1

[5] = tested on: pigweed (Amaranthus retroflexus); assay: Test A preemergence, visual plant response rating; conditions: approx. 10 days
Outline: as §1

[6] = tested on: ragweed (common ragweed, Ambrosia elatior); assay: Test A preemergence, visual plant response rating; conditions: approx. 10 days
Outline: as §1

[7] = tested on: Italian ryegrass (Lolium multiflorum); assay: Test A postemergence, visual plant response rating; conditions: for Ryegrass, Italian plant response rating (0 to 100 scale): 500 g ai/ha, postemergence, 0 is no effect, 100 is complete control; for Ryegrass, Italian plant response rating: Postemergence, 125 g ai/ha, 0 to 100 scale (0 no effect, 100 complete control)
Outline: as §1

[8] = tested on: barnyardgrass (Echinochloa crus-galli); assay: Test A postemergence, visual plant response rating; conditions: for Barnyardgrass plant response rating (0 to 100 scale): 500 g ai/ha, postemergence, 0 is no effect, 100 is complete control; for Barnyardgrass plant response rating: Postemergence, 125 g ai/ha, 0 to 100 scale (0 no effect, 100 complete control)
Outline: as §1

[9] = tested on: blackgrass (Alopecurus myosuroides); assay: Test A postemergence, visual plant response rating; conditions: for Blackgrass plant response rating (0 to 100 scale): 500 g ai/ha, postemergence, 0 is no effect, 100 is complete control; for Blackgrass plant response rating: Postemergence, 125 g ai/ha, 0 to 100 scale (0 no effect, 100 complete control)
Outline: as §1

corn (Zea mays) = assay: Test A postemergence, visual plant response rating; conditions: for Corn plant response rating (0 to 100 scale): 500 g ai/ha, postemergence, 0 is no effect, 100 is complete control; for Corn plant response rating: Postemergence, 125 g ai/ha, 0 to 100 scale (0 no effect, 100 complete control)
Outline: as §1

[10] = tested on: foxtail, green (green foxtail, Setaria viridis); assay: Test A postemergence, visual plant response rating; conditions: for Foxtail, Green plant response rating (0 to 100 scale): 500 g ai/ha, postemergence, 0 is no effect, 100 is complete control; for Foxtail, Green plant response rating: Postemergence, 125 g ai/ha, 0 to 100 scale (0 no effect, 100 complete control)
Outline: as §1

[11] = tested on: galium (catchweed bedstraw, Galium aparine); assay: Test A postemergence, visual plant response rating; conditions: for Galium plant response rating (0 to 100 scale): 500 g ai/ha, postemergence, 0 is no effect, 100 is complete control; for Galium plant response rating: Postemergence, 125 g ai/ha, 0 to 100 scale (0 no effect, 100 complete control)
Outline: as §1

kochia (Kochia scoparia) [12] = assay: Test A postemergence, visual plant response rating; conditions: for Kochia plant response rating (0 to 100 scale): 500 g ai/ha, postemergence, 0 is no effect, 100 is complete control; for Kochia plant response rating: Postemergence, 125 g ai/ha, 0 to 100 scale (0 no effect, 100 complete control)
Outline: as §1

[13] = tested on: pigweed (Amaranthus retroflexus); assay: Test A postemergence, visual plant response rating; conditions: for Pigweed plant response rating (0 to 100 scale): 500 g ai/ha, postemergence, 0 is no effect, 100 is complete control; for Pigweed plant response rating: Postemergence, 125 g ai/ha, 0 to 100 scale (0 no effect, 100 complete control)
Outline: as §1

[14] = tested on: ragweed (common ragweed, Ambrosia elatior); assay: Test A postemergence, visual plant response rating; conditions: for Ragweed plant response rating (0 to 100 scale): 500 g ai/ha, postemergence, 0 is no effect, 100 is complete control; for Ragweed plant response rating: Postemergence, 125 g ai/ha, 0 to 100 scale (0 no effect, 100 complete control)
Outline: as §1

[15] = tested on: wheat (Triticum aestivum); assay: Test A postemergence, visual plant response rating; conditions: for Wheat plant response rating (0 to 100 scale): 500 g ai/ha, postemergence, 0 is no effect, 100 is complete control; for Wheat plant response rating: Postemergence, 125 g ai/ha, 0 to 100 scale (0 no effect, 100 complete control)
Outline: as §1

[16] = tested on: barnyardgrass (Echinochloa crus-galli); assay: Test B flooded paddy test, visual plant response rating; conditions: 250 g ai/ha, Flood, applied to paddy water, 2-leaf stage, evaluated after 13 to 15 days
Outline: (§2)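 Test pots are flooded 3 cm above the soil at treatment, and the test substance is introduced into this standing water. After keeping the flood level and growing plants, treated at the 2-leaf stage, for 13 to 15 days under glass, injury is assessed visually versus controls.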

[17] = tested on: ducksalad (Heteranhera limosa); assay: as above; conditions: 250 g ai/ha, Flood, applied to paddy water, 2-leaf stage, evaluated after 13 to 15 days
Outline: as §2

rice (Oryza sativa) = assay: as above; conditions: 250 g ai/ha, Flood, applied to paddy water, 2-leaf stage, evaluated after 13 to 15 days
Outline: as §2

[18] = tested on: sedge, umbrella (small-flower umbrella sedge, Cyperus difformis); assay: as above; conditions: 250 g ai/ha, Flood, applied to paddy water, 2-leaf stage, evaluated after 13 to 15 days
Outline: as §2

| SMILES | Ryegrass, Italian plant response rating (0 to 100 scale) ([1]; 125 g ai/ha Preemergence) | Ryegrass, Italian plant response rating (0 to 100 scale) ([1]; 500 g ai/ha Preemergence) | Barnyardgrass plant response rating (0 to 100 scale) ([2]; 125 g ai/ha Preemergence) | Barnyardgrass plant response rating (0 to 100 scale) ([2]; 500 g ai/ha Preemergence) | Foxtail, Green plant response rating (0 to 100 scale) ([3]; 125 g ai/ha Preemergence) | Foxtail, Green plant response rating (0 to 100 scale) ([3]; 500 g ai/ha Preemergence) | Kochia plant response rating (0 to 100 scale) (kochia (Kochia scoparia) [4]; 125 g ai/ha Preemergence) | Kochia plant response rating (0 to 100 scale) (kochia (Kochia scoparia) [4]; 500 g ai/ha Preemergence) | Pigweed plant response rating (0 to 100 scale) ([5]; 125 g ai/ha Preemergence) | Pigweed plant response rating (0 to 100 scale) ([5]; 500 g ai/ha Preemergence) | Ragweed plant response rating (0 to 100 scale) ([6]; 125 g ai/ha Preemergence) | Ragweed plant response rating (0 to 100 scale) ([6]; 500 g ai/ha Preemergence) | Ryegrass, Italian plant response rating (0 to 100 scale) [7] | Ryegrass, Italian plant response rating [7] | Barnyardgrass plant response rating (0 to 100 scale) [8] | Barnyardgrass plant response rating [8] | Blackgrass plant response rating (0 to 100 scale) [9] | Blackgrass plant response rating [9] | Corn plant response rating (0 to 100 scale) (corn (Zea mays)) | Corn plant response rating (corn (Zea mays)) | other results |
| --- | --- | --- | --- | --- | --- | --- | --- | --- | --- | --- | --- | --- | --- | --- | --- | --- | --- | --- | --- | --- | --- |
| Cc1cccc(/C(=N\O)c2c(O)c(C)nn(C)c2=O)c1 [Compound 21] | 0 | 0 | 0 | 0 | 0 | 0 | 0 | 0 | 0 | 0 | 0 | 0 | 20 | 0 | 0 | 0 | 0 | 0 | 0 | 0 | Foxtail, Green plant response rating (0 to 100 scale) [10]: 0; Foxtail, Green plant response rating [10]: 0; Galium plant response rating (0 to 100 scale) [11]: 80; Galium plant response rating [11]: 0; Kochia plant response rating (0 to 100 scale) (kochia (Kochia scoparia) [12]): 10; Kochia plant response rating (kochia (Kochia scoparia) [12]): 0; Pigweed plant response rating (0 to 100 scale) [13]: 60; Pigweed plant response rating [13]: 0; Ragweed plant response rating (0 to 100 scale) [14]: 20; Ragweed plant response rating [14]: 0; Wheat plant response rating (0 to 100 scale) [15]: 0; Wheat plant response rating [15]: 0; Plant response rating, Barnyardgrass (0 to 100 scale, 0 is no effect, 100 is complete control) [16]: 0; Plant response rating, Ducksalad (0 to 100 scale, 0 is no effect, 100 is complete control) [17]: 0; Plant response rating, Rice (0 to 100 scale, 0 is no effect, 100 is complete control) (rice (Oryza sativa)): 0; Plant response rating, Sedge, Umbrella (0 to 100 scale, 0 is no effect, 100 is complete control) [18]: 0 |
| CCO/N=C(\c1ccccc1C)c1c(O)c(C)nn(C)c1=O [Compound 14] | 20 | 90 | 40 | 80 | 20 | 70 | 0 | 20 | 0 | 50 | 80 | 80 | 60 | 60 | 40 | 20 | 60 | 30 | 10 | 0 | Foxtail, Green plant response rating (0 to 100 scale) [10]: 40; Foxtail, Green plant response rating [10]: 20; Galium plant response rating (0 to 100 scale) [11]: 90; Galium plant response rating [11]: 90; Kochia plant response rating (0 to 100 scale) (kochia (Kochia scoparia) [12]): 50; Kochia plant response rating (kochia (Kochia scoparia) [12]): 20; Pigweed plant response rating (0 to 100 scale) [13]: 80; Pigweed plant response rating [13]: 20; Ragweed plant response rating (0 to 100 scale) [14]: 70; Ragweed plant response rating [14]: 60; Wheat plant response rating (0 to 100 scale) [15]: 0; Wheat plant response rating [15]: 0; Plant response rating, Barnyardgrass (0 to 100 scale, 0 is no effect, 100 is complete control) [16]: 0; Plant response rating, Ducksalad (0 to 100 scale, 0 is no effect, 100 is complete control) [17]: 0; Plant response rating, Rice (0 to 100 scale, 0 is no effect, 100 is complete control) (rice (Oryza sativa)): 0; Plant response rating, Sedge, Umbrella (0 to 100 scale, 0 is no effect, 100 is complete control) [18]: 0 |
| CO/N=C(/c1cccc(C)c1)c1c(O)c(C2CC2)nn(C)c1=O [Compound 28] | 0 | 0 | 0 | 0 | 0 | 30 | 0 | 0 | 0 | 10 | 0 | 10 | 10 | 0 | 30 | 0 | 40 | 0 | 0 | 0 | Foxtail, Green plant response rating (0 to 100 scale) [10]: 10; Foxtail, Green plant response rating [10]: 0; Galium plant response rating (0 to 100 scale) [11]: 60; Galium plant response rating [11]: 20; Kochia plant response rating (0 to 100 scale) (kochia (Kochia scoparia) [12]): 0; Kochia plant response rating (kochia (Kochia scoparia) [12]): 0; Pigweed plant response rating (0 to 100 scale) [13]: 40; Pigweed plant response rating [13]: 30; Ragweed plant response rating (0 to 100 scale) [14]: 40; Ragweed plant response rating [14]: 0; Wheat plant response rating (0 to 100 scale) [15]: 0; Wheat plant response rating [15]: 0; Plant response rating, Barnyardgrass (0 to 100 scale, 0 is no effect, 100 is complete control) [16]: 0; Plant response rating, Ducksalad (0 to 100 scale, 0 is no effect, 100 is complete control) [17]: 0; Plant response rating, Rice (0 to 100 scale, 0 is no effect, 100 is complete control) (rice (Oryza sativa)): 0; Plant response rating, Sedge, Umbrella (0 to 100 scale, 0 is no effect, 100 is complete control) [18]: 0 |
